According to patent publication US20160130577A1, “NUCLEOTIDE SEQUENCE MOTIFS DIRECTING NUCLEIC ACID LOCATION TO EXTRACELLULAR VESICLES” (FUNDACIÓN CENTRO NACIONAL DE INVESTIGACIONES …, priority 2012, published 2016):

Columns and labels:
sumo-conjugated proteins = assay: Western blot of cell extracts for SUMO-1 (sumoylation inhibitor efficiency); type: cell-based, human; conditions: anacardic acid versus DMSO
Procedure: (§1) FIG. 13. Assessment of sumoylation inhibitor efficiency. (A) Western blot analysis of hnRNPA1 in T cells and their EVs. (B) Representative western blot showing the decrease in sumo-conjugated proteins in the presence of anacardic acid. Cells were incubated with anacardic acid (AA) or DMSO (control condition, CONT) and cell extracts were blotted for SUMO-1. (C) Representative western blot showing no changes in EV secretion and cell death in the presence of anacardic acid. Cells were incubated with anacardic acid (AA) or DMSO (CONT), and EV were purified by ultracentrifugation and blotted for CD81 and cytochrome c.
(§2) To confirm whether the higher molecular weight of EVs hnRNPA2B1 was due to sumoylation, we cultured Jurkat T cells in the presence of the specific sumoylation inhibitor anacardic acid (AA). Briefly, cells were cultured with anacardic acid (100 μM) (Sigma) or 6 DMSO for 4 h at 37° C. Cells were then diluted 1:4 and incubated overnight. EVs and cells were resuspended in buffer 1 for western blotting or hnRNPA2B1 immunoprecipitation (FIG. 13B).

hnRNPA2B1 [1] = assay: hnRNPA2B1 IP-qPCR from EV lysates of control or AA-treated cells; type: cell-based, human; conditions: EV lysates from AA-treated versus control cells
Procedure: as §2

Jurkat T cells [2] = assay: Western blot of EVs for CD81 and cytochrome c (EV secretion, cell death); type: cell-based; conditions: anacardic acid versus DMSO
Procedure: as §1, §2

hnRNPA2B1 sumoylation = assay: Western blot of hnRNPA2B1 molecular weight in EVs with sumoylation inhibitor; type: cell-based, human; conditions: anacardic acid 100 μM 4 h, then diluted 1:4 overnight; versus DMSO
Procedure: as §2

Jurkat T cells [3] = assay: qPCR of miRNA levels in EVs from control or AA-treated cells; type: cell-based, human; conditions: anacardic acid 100 μM versus DMSO
hnRNPA2B1 [4] = assay: pull-down of EV extracts with biotinylated miRNA-coated streptavidin beads, mass spectrometry; type: binding, human
Procedure: To analyze the molecular mechanism that controls the packaging of miRNAs presenting the motifs of the invention in EVs, a search was performed of the proteins present in EVs and which bind specifically to EVmiRNAs. For this purpose, extracts of isolated EVs from human T lymphoblasts were incubated in the presence of streptavidin beads coated with biotinylated EVmiRNA miR-198, or with biotinylated CLmiRNA miR-17. The analysis of EVs-coupled beads was performed by FACS. Briefly, Evs were obtained by ultracentrifugation and sucrose gradient flotation, resuspended in PBS and coupled to 4 μm aldehyde-sulfate beads (Invitrogen) overnight at room temperature in rotation. Beads were washed and blocked for 60 min at room temperature in 4% BSA in PBS. For intracellular staining, bead-bound Evs were permeabilized and fixed for 5 min at room temperature with 0.2% TX, 2% FA in PBS. […] Beads were acquired on a FACSCalibur (BD) and data were analyzed with FlowJo software (Tree Star). […] Briefly, the peptides were resuspended and injected onto a C-18 reversed phase (RP) nano-column (75 μm 2 I.D.×25 cm, Acclaim PepMap100, Thermo Scientific) and analyzed in a continuous acetonitrile gradient consisting of 0-43% B in 90 min, 50-90% B in 1 min (B=90% acetonitrile, 0.5% acetic acid). […] SEQUEST results were validated using the probability ratio method and false discovery rates calculated using the refined method. […]
Target sequence in this assay (P22626 15-353 limits assumed): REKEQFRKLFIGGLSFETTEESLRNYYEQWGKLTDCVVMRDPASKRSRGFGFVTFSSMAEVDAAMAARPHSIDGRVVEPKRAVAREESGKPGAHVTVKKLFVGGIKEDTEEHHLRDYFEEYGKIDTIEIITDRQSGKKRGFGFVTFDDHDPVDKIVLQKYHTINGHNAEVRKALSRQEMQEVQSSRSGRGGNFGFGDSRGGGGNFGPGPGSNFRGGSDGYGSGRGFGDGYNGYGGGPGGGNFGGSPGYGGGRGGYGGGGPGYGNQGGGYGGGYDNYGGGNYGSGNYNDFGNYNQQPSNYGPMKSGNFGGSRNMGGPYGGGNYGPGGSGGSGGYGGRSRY

HNRPU = molecular target: T1, HNRPU (Homo sapiens, UniProt Q00839); assay: as above; type: binding; conditions: HNRPU precipitated from EV extracts of human T lymphoblasts
T1 construct: endogenous in cells; host or cells: extracellular vesicles from primary human T lymphoblasts
Procedure: (§3) To analyze the molecular mechanism that controls the packaging of miRNAs presenting the motifs of the invention in EVs, a search was performed of the proteins present in EVs and which bind specifically to EVmiRNAs. For this purpose, extracts of isolated EVs from human T lymphoblasts were incubated in the presence of streptavidin beads coated with biotinylated EVmiRNA miR-198, or with biotinylated CLmiRNA miR-17. The analysis of EVs-coupled beads was performed by FACS. Briefly, Evs were obtained by ultracentrifugation and sucrose gradient flotation, resuspended in PBS and coupled to 4 μm aldehyde-sulfate beads (Invitrogen) overnight at room temperature in rotation. Beads were washed and blocked for 60 min at room temperature in 4% BSA in PBS. For intracellular staining, bead-bound Evs were permeabilized and fixed for 5 min at room temperature with 0.2% TX, 2% FA in PBS. Beads were incubated with antihnRNPA2B1 (Santa Cruz) or anti-CD81 (5A6, Santa Cruz) for 1 h at 4° C., washed and incubated with Alexa-488-goat-anti-mouse IgG (Invitrogen) for 30 min. Beads were acquired on a FACSCalibur (BD) and data were analyzed with FlowJo software (Tree Star). Negative controls were obtained with EV-coupled beads incubated with the secondary antibody. The proteins collected were identified by high performance mass spectrometry. As negative controls, uncoated or poly-A-coated streptavidin beads were used. Briefly, proteins were in-gel digested using a previously-described protocol. Briefly, 75 μl of beads were suspended in 25 μl sample buffer and loaded in 2.8-cm-wide wells of an SDS-PAGE gel. The run was stopped as soon as the front entered 3 mm into the resolving gel; the protein band was visualized by Coomassie staining, excised and digested overnight at 37° C. with 60 ng/μl trypsin at 5:1 protein:trypsin (w/w) ratio in 50 mM ammonium bicarbonate, pH 8.8 containing 10% ACN. The resulting tryptic peptides were extracted by 1 h incubation in 12 mM ammonium bicarbonate, pH 8.8. TFA was added to a final concentration of 1% and the peptides were finally desalted onto C18 Oasis cartridges and dried down. Peptide identification by mass spectrometry was performed as described. Briefly, the peptides were resuspended and injected onto a C-18 reversed phase (RP) nano-column (75 μm 2 I.D.×25 cm, Acclaim PepMap100, Thermo Scientific) and analyzed in a continuous acetonitrile gradient consisting of 0-43% B in 90 min, 50-90% B in 1 min (B=90% acetonitrile, 0.5% acetic acid). A flow rate of ca. 300 nL/min was used to elute peptides from the RP nano-column to an emitter nanospray needle for real time ionization and peptide fragmentation on an LTQ XP Orbitrap mass spectrometer (Thermo Fisher, San José, Calif., USA). An enhanced FT spectrum (30.000 resolution) followed by MS/MS spectra from most intense ten parent ions were performed along the chromatographic run (130 min). Dynamic exclusion was set at 30 s. The MS/MS raw files were searched against the Human Swissprot database (Uniprot release 14.0, 19929 sequence entries for human) supplemented with porcine trypsin and bacterial Streptavidin. SEQUEST results were validated using the probability ratio method and false discovery rates calculated using the refined method. Peptide and scan counting was performed assuming as positive events those with a FDR equal to or lower than 5%.

NUCL = molecular target: T2, NUCL (Homo sapiens, UniProt P19338); assay: as above; type: binding; conditions: NUCL precipitated from EV extracts of human T lymphoblasts
T2 construct: endogenous in cells; host or cells: extracellular vesicles from primary human T lymphoblasts
Procedure: as §3

hnRNPA1 = molecular target: T3, hnRNPA1 (Homo sapiens, UniProt P09651); assay: as above; type: binding
T3 construct: endogenous in cells; host or cells: extracellular vesicles from primary human T lymphoblasts
Procedure: as §3

RS3 = molecular target: T4, RS3 (Homo sapiens, UniProt P23396); assay: as above; type: binding; conditions: RS3 precipitated from EV extracts of human T lymphoblasts
T4 construct: endogenous in cells; host or cells: extracellular vesicles from primary human T lymphoblasts
Procedure: as §3

HNRPC = molecular target: T5, HNRPC (Homo sapiens, UniProt P07910); assay: as above; type: binding; conditions: HNRPC precipitated from EV extracts of human T lymphoblasts
T5 construct: endogenous in cells; host or cells: extracellular vesicles from primary human T lymphoblasts
Procedure: as §3

RS4X = molecular target: T6, RS4X (Homo sapiens, UniProt P62701); assay: as above; type: binding; conditions: RS4X precipitated from EV extracts of human T lymphoblasts
T6 construct: endogenous in cells; host or cells: extracellular vesicles from primary human T lymphoblasts
Procedure: as §3

T3 sequence (P09651 whole entry): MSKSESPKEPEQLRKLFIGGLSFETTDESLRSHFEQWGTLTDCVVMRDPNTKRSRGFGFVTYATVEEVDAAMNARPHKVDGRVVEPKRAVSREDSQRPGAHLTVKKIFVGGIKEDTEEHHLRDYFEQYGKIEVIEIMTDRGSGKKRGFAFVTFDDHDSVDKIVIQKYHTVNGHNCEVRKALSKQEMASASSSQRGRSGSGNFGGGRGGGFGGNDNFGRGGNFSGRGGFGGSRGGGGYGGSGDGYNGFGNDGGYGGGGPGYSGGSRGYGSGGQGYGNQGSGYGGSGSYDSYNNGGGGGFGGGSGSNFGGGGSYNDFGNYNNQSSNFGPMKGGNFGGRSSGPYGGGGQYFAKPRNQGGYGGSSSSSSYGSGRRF
T5 sequence (P07910 whole entry): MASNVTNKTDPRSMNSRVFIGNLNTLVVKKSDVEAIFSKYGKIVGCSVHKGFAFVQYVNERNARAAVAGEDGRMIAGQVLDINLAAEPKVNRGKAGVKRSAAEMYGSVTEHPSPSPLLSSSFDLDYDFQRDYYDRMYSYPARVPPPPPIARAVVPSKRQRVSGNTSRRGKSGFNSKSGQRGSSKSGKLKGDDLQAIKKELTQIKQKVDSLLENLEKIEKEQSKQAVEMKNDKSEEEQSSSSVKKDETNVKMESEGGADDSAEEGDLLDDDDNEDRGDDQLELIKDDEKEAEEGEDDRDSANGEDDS
T2 sequence (P19338 whole entry): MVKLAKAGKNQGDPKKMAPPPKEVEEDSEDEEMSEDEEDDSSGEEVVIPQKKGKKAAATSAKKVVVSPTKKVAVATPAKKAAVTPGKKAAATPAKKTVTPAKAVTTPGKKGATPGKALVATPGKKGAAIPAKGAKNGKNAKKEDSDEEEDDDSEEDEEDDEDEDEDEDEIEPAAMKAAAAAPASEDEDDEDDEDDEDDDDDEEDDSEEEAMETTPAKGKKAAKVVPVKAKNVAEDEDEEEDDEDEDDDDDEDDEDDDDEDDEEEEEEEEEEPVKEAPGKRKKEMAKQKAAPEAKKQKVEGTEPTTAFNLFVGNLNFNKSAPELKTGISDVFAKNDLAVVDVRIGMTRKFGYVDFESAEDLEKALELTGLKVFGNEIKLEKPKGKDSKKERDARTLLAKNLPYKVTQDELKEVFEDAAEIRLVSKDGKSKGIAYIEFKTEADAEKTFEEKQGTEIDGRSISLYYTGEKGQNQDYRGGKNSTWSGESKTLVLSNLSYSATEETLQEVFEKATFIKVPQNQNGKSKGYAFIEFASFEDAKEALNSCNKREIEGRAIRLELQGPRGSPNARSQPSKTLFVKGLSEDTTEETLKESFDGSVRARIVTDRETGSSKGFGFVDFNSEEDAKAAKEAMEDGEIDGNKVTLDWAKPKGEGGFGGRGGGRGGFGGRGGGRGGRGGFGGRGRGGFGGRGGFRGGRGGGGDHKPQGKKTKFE
T1 sequence (Q00839 whole entry): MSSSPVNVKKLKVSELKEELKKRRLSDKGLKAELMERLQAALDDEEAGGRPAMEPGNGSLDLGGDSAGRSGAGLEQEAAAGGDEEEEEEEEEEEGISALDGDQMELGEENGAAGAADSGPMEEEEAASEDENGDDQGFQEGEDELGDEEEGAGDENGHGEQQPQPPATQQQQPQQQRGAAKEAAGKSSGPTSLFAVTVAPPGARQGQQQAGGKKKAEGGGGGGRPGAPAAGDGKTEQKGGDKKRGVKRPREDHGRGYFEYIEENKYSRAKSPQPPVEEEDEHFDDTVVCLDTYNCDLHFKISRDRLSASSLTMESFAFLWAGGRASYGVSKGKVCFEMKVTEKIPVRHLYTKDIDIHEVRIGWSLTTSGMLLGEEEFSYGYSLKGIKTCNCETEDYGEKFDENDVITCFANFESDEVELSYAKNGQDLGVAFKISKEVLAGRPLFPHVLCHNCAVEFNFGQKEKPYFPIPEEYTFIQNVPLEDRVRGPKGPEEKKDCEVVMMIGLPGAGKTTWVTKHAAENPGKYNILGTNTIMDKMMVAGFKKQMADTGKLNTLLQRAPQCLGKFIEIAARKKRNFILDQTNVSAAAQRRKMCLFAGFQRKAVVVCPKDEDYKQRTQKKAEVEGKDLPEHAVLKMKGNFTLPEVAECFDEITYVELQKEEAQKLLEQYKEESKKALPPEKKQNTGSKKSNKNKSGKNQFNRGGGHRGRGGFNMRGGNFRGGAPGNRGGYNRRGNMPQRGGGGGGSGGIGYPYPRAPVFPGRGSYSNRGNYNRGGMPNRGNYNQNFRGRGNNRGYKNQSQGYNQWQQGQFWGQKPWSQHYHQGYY

Row | Molecule | sumo-conjugated proteins (SUMO-1 blot) (sumo-conjugated proteins) | miR-198 bound to hnRNPA2B1 (IP-qPCR) (hnRNPA2B1 [1]) | EV secretion (CD81 blot) (Jurkat T cells [2]) | cell death (cytochrome c blot) (Jurkat T cells [2]) | low-molecular weight hnRNPA2B1 band in EVs (hnRNPA2B1 sumoylation) | levels of miR-17 in EVs (Jurkat T cells [3]) | levels of miR-18 in EVs (Jurkat T cells [3]) | levels of miR-198 in EVs (Jurkat T cells [3]) | Number of peptides identified by mass spectrometry (hnRNPA2B1 [4]; hnRNPA2B1 precipitated from EV extracts of human T lymphoblasts) | binding of hnRNPA2B1 (in words) (hnRNPA2B1 [4]; pull-down from EV extracts) | Number of peptides identified by mass spectrometry (HNRPU) | Number of peptides identified by mass spectrometry (NUCL) | Number of peptides identified by mass spectrometry (hnRNPA1; hnRNPA1 precipitated from EV extracts of human T lymphoblasts) | binding of hnRNPA1 (in words) (hnRNPA1; pull-down from EV extracts) | Number of peptides identified by mass spectrometry (RS3) | Number of peptides identified by mass spectrometry (HNRPC) | Number of peptides identified by mass spectrometry (RS4X)
1 | CCCCCCCCCCCCCCCc1cccc(O)c1C(=O)O [anacardic acid] | decrease | decreased binding | no changes | no changes | could be readily detected | did not change | did not change | reduced | – | – | – | – | – | – | – | – | –
2 | poly-A | – | – | – | – | – | – | – | – | 0 | no binding | 0 | 8 | 0 | no binding | 0 | 0 | 0
